Test results: patent US4621090A, “Antifungal compositions” (Toyo Soda Manufacturing Co., Ltd., priority 1983, dated 1986)
Values after ≈ are worked out from the molar mass of the structure shown.

What was measured:
[1] = tested on: Trichophyton mentagraphytes MTU-19031; assay: Minimum inhibitory concentration, anti-Trichophyton mentagraphytes activity test, strain MTU-19031; assay type: cell-based; conditions: 27° C., a week; for MIC: Trichophyton, MTU19031, Sabouraud's dextrose agar
Method: (§1) The activity was tested by the 10 time-step dilution test, using the Sabouraud's dextrose agar culture medium (2% dextrose, 1% pepton and 1.5% agar; pH 6.5±). A platinum loopful (about 10 μl) spore suspension (prepared from a reserved strain of Trichlophyton mentagraphytes and containing 1×10^6 cells/ml) was applied in the form of drawn lines on a plate of a culture medium containing the active ingredients. The culture medium plate was kept at 27° C. for a week and then visually observed to see if any colonies had formed. The minimum inhibitory concentration was defined as the minimum concentration with which formation of distinct colonies on the culture medium plate was not observed.

[2] = tested on: Trichophyton mentagraphytes MTU-19024; assay: Minimum inhibitory concentration, anti-Trichophyton mentagraphytes activity test, strain MTU-19024; assay type: cell-based; conditions: 27° C., a week; for MIC: Trichophyton, MTU19024, Sabouraud's dextrose agar
Method: as §1

Molecule | MIC [1] [µg/mL] | MIC [2] [µg/mL] | Minimum inhibitory concentration ([1]; Sabouraud's dextrose agar) [µg/mL] | Minimum inhibitory concentration ([2]; Sabouraud's dextrose agar) [µg/mL]
C=C(C)c1ccc(OC(=S)N(C)c2cccc(OC)n2)cc1 [compound 56, O--4-Isopropenylphenyl N--(6-methoxy-2-pyridyl)-N--methylthiocarbamate] | 0.5 (≈ 1.59 µM) | 0.5 (≈ 1.59 µM) | – | –
COc1cccc(N(C)C(=S)Oc2ccc(C(C)C)c(C)c2)n1 [compound 41, O--4-Isopropyl-3-methylphenyl N--(6-methoxy-2-pyridyl)-N--methylthiocarbamate] | 0.5 (≈ 1.51 µM) | 0.5 (≈ 1.51 µM) | – | –
COc1cccc(N(C)C(=S)Oc2ccc(Br)cc2)n1 [compound 34, O--4-Bromophenyl N--(6-methoxy-2-pyridyl)-N--methylthiocarbamate] | 0.05 (≈ 0.142 µM) | 0.5 (≈ 1.42 µM) | – | –
COc1cccc(N(C)C(=S)Oc2ccc(C(F)(F)F)cc2)n1 [compound 43, O-- 4-Trifluoromethylphenyl N--(6-methoxy-2-pyridyl)-N--methylthiocarbamate] | 0.05 (≈ 0.146 µM) | 0.5 (≈ 1.46 µM) | – | –
COc1cccc(N(C)C(=S)Oc2ccc(SC)cc2)n1 [compound 62, O--4-Methylthiophenyl N--(6-methoxy-2-pyridyl)-N--methylthiocarbamate] | 0.05 (≈ 0.156 µM) | 0.5 (≈ 1.56 µM) | – | –
Cc1cccc(N(C)C(=S)Oc2ccc3c(c2)CCCC3)n1 [compound 8, O--5,6,7,8-Tetrahydro-2-naphthyl N--methyl-N--(6-methyl-2-pyridyl)thiocarbamate] | 0.5 (≈ 1.6 µM) | 0.5 (≈ 1.6 µM) | – | –
COc1cccc(N(C)C(=O)Oc2ccc3c(c2)C2CCC3C2)n1 (centres unmarked) [compound 13, 1,4-Methano-1,2,3,4-tetrahydro-6-naphthyl N--(6-methoxy-2-pyridyl)-N--methylcarbamate] | 0.5 (≈ 1.54 µM) | 0.5 (≈ 1.54 µM) | – | –
COc1cccc(N(C)C(=S)Oc2ccc(C(C)C)cc2)n1 [compound 30, O--4-Isopropylphenyl N--(6-methoxy-2-pyridyl)-N--methylthiocarbamate] | 0.5 (≈ 1.58 µM) | 0.5 (≈ 1.58 µM) | – | –
CCc1ccc(OC(=S)N(C)c2cccc(OC)n2)cc1C [compound 39, O--4-Ethyl-3-methylphenyl N--(6-methoxy-2-pyridyl)-N--methylthiocarbamate] | 0.5 (≈ 1.58 µM) | 0.5 (≈ 1.58 µM) | – | –
Cc1ccc(N(C)C(=S)Oc2ccc3c(c2)CCCC3)nc1C [compound 27, O--5,6,7,8-Tetrahydro-2-naphthyl N--methyl-N--(5,6-dimethyl-2-pyridyl)-thiocarbamate] | 0.5 (≈ 1.53 µM) | 0.5 (≈ 1.53 µM) | – | –
COc1cccc(N(C)C(=S)Oc2ccc(Cl)c(Cl)c2)n1 [compound 50, O--3,4-Dichlorophenyl N--(6-methoxy-2-pyridyl)-N--methylthiocarbamate] | 0.5 (≈ 1.46 µM) | 0.5 (≈ 1.46 µM) | – | –
CCc1ccc(OC(=S)N(C)c2cccc(OC)n2)cc1 [compound 33, O--4-Ethylphenyl N--(6-methoxy-2-pyridyl)-N--methylthiocarbamate] | 0.05 (≈ 0.165 µM) | 0.5 (≈ 1.65 µM) | – | –
Cc1ccc(N(C)C(=S)Oc2ccc3ccccc3c2)nc1C [compound 25, O--2-Naphthyl N--methyl-N--(5,6-dimethyl-2-pyridyl)thiocarbamate] | 0.5 (≈ 1.55 µM) | 0.5 (≈ 1.55 µM) | – | –
COc1cccc(N(C)C(=S)Oc2ccc(Cl)c(C)c2)n1 [compound 38, O--4-Chloro-3-methylphenyl N--(6-methoxy-2-pyridyl)-N--methylthiocarbamate] | 0.05 (≈ 0.155 µM) | 0.5 (≈ 1.55 µM) | – | –
COc1cccc(N(C)C(=S)Oc2ccc3c(c2)C2CCC3CC2)n1 [compound 21, O--1,4-Ethano-1,2,3,4-tetrahydro-6-naphthyl N--(6-methoxy-2-pyridyl)-N--methylthiocarbamate] | 0.5 (≈ 1.41 µM) | 0.5 (≈ 1.41 µM) | – | –
COc1cccc(N(C)C(=S)Oc2ccc(C)cc2)n1 [compound 53, O--4-Methylphenyl N--(6-methoxy-2-pyridyl)-N--methylthiocarbamate] | 0.5 (≈ 1.73 µM) | 0.5 (≈ 1.73 µM) | – | –

Molecule | MIC [1] [µg/mL] | MIC [2] [µg/mL] | Minimum inhibitory concentration ([1]; Sabouraud's dextrose agar) [µg/mL] | Minimum inhibitory concentration ([2]; Sabouraud's dextrose agar) [µg/mL]
CN(C)c1cccc(N(C)C(=S)Oc2ccc3ccccc3c2)n1 [compound 35, O--2-Naphthyl N--methyl-N--(6-dimethylamino-2-pyridyl)-thiocarbamate] | 0.5 (≈ 1.48 µM) | 0.5 (≈ 1.48 µM) | – | –
CN(C)c1cccc(N(C)C(=S)Oc2ccc(C(C)(C)C)cc2)n1 [compound 36, O--4-t-Butylphenyl N--methyl-N--(6-dimethylamino-:2-pyridyl)-thiocarbamate] | 0.5 (≈ 1.46 µM) | 0.5 (≈ 1.46 µM) | – | –
COc1cccc(N(C)C(=S)Oc2ccc(Br)c(C)c2)n1 [compound 46, O--4-Bromo-3-methylphenyl N--(6-methoxy-2-pyridyl)-N--methylthiocarbamate] | 0.5 (≈ 1.36 µM) | 0.5 (≈ 1.36 µM) | – | –
CNc1cccc(N(C)C(=S)Oc2ccc(C(C)(C)C)cc2)n1 [compound 58, O--4-t-Butylphenyl N--methyl-N--(6-methylamino-2-pyridyl)thiocarbamate] | 0.5 (≈ 1.52 µM) | 0.5 (≈ 1.52 µM) | – | –
Cc1cc(C)nc(N(C)C(=S)Oc2ccc3ccccc3c2)c1 [compound 14, O--2-Naphthyl N--methyl-N--(4,6,-dimethyl-2-pyridyl)thiocarbamate] | 0.5 (≈ 1.55 µM) | 0.5 (≈ 1.55 µM) | – | –
Cc1cccc(N(C)C(=S)Oc2ccc3ccccc3c2)n1 [Compound No. 2, O-2-Naphthyl N-methyl-N-(6-methyl-2-pyridyl)thiocarbamate] | 0.5 (≈ 1.62 µM) | 0.5 (≈ 1.62 µM) | – | –
COc1cccc(N(C)C(=S)Oc2ccc(C(C)(C)C)cc2)n1 [compound 16, O--4-t-Butylphenyl N--(6-methoxy-2-pyridyl)-N--methylthiocarbamate] | 0.5 (≈ 1.51 µM) | 0.5 (≈ 1.51 µM) | – | –
Cc1cc(C)nc(N(C)C(=S)Oc2ccc3c(c2)CCC3)c1 [compound 15, O--5-Indanyl N--methyl-N--(4,6-dimethyl-2-pyridyl)thiocarbamate] | 0.5 (≈ 1.6 µM) | 0.5 (≈ 1.6 µM) | – | –
CCCc1ccc(OC(=S)N(C)c2cccc(OC)n2)cc1 [compound 65, O--4-Propylphenyl N--(6-methoxy-2-pyridyl)-N--methylthiocarbamate] | 0.5 (≈ 1.58 µM) | 0.5 (≈ 1.58 µM) | – | –
CCC(C)(C)c1ccc(OC(=S)N(C)c2cccc(OC)n2)cc1 [compound 19, O--4-t-Pentylphenyl N--(6-methoxy-2-pyridyl)-N--methylthiocarbamate] | 0.5 (≈ 1.45 µM) | 0.5 (≈ 1.45 µM) | – | –
CN(C)c1cccc(N(C)C(=S)Oc2ccc(C(F)(F)F)cc2)n1 [compound 68, O--4-Trifluoromethylphenyl N--(6-dimethylamino-2-pyridyl)-N--methylthiocarbamate] | 0.5 (≈ 1.41 µM) | 0.5 (≈ 1.41 µM) | – | –
COc1cccc(N(C)C(=S)Oc2ccc(C)c(C)c2)n1 [compound 22, O--3,4-Dimethylphenyl N--(6-methoxy-2-pyridyl)-N--methylthiocarbamate] | 0.5 (≈ 1.65 µM) | 0.5 (≈ 1.65 µM) | – | –
COc1cccc(N(C)C(=S)Oc2ccc3c(c2)C2CCC3C2)n1 (centres unmarked) [compound 12, O--1,4-Methano-1,2,3,4-tetrahydro-6-naphthyl N--(6-methoxy-2-pyridyl)-N--methylthiocarbamate] | 0.5 (≈ 1.47 µM) | 0.5 (≈ 1.47 µM) | – | –
Cc1ccc(N(C)C(=S)Oc2ccc3c(c2)CCC3)nc1C [compound 26, O--5-Indanyl N--methyl-N--(5,6-dimethyl-2-pyridyl)thiocarbamate] | 0.5 (≈ 1.6 µM) | 0.5 (≈ 1.6 µM) | – | –
O--Methyl-4-nitrophenyl N--(6-methoxy-2-pyridyl)-N--methylthiocarbamate [compound 66] | – | – | 0.5 | 0.5
